From patent US12077503B2, “Substituted cyclic amides and their use as herbicides” (FMC CORPORATION, priority 2015, dated 2024)

Assays:
Assay type in all cases: in vivo
[1] = tested on: barnyardgrass (Echinochloa crus-galli); assay: Test G Pre-Emergence Protocol; conditions: Echinochloa crus-galli, pre-emergence, 312 h, evaluated after 13 days; for pest or weed control at 15.625 g/ha: 15.625 g ai/ha, read-out: Barnyard grass damage rating (100=total damage to plant; 0=no damage to plant); for pest or weed control at 62.5 g/ha: 62.5 g ai/ha, 100=total damage to plant, 0=no damage to plant, read-out: plant damage rating, Barnyardgrass; for pest or weed control at 250 g/ha: 250 g ai/ha, read-out: Barnyardgrass damage rating (100=total damage to plant; 0=no damage to plant)
Method in brief: (§1)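 Glasshouse pre-emergence test: soil-sown seeds, sprayed after 1 d at 15.625, 62.5 or 250 g/ha. Conditions 24/16° C day/night, 14 h light, 65% humidity, watering twice daily. Rating 13 d post-spray (100 = total damage).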

corn (Zea mays) [2] = assay: Test G Pre-Emergence Protocol; conditions: Zea mays, pre-emergence, 312 h, evaluated after 13 days; for plant injury at 15.625 g/ha: 15.625 g ai/ha; for plant injury at 15.625 g/ha / plant injury at 250 g/ha: read-out: Corn damage rating (100=total damage to plant; 0=no damage to plant); for plant injury at 62.5 g/ha: 62.5 g ai/ha, 100=total damage to plant, 0=no damage to plant, read-out: plant damage rating, Corn; for plant injury at 250 g/ha: 250 g ai/ha
Method in brief: as §1

[3] = tested on: ivy-leaved morning glory (Ipomoea hederacea); assay: Test G Pre-Emergence Protocol; conditions: Ipomoea, pre-emergence, 312 h, evaluated after 13 days; for pest or weed control at 15.625 g/ha: 15.625 g ai/ha, read-out: Morning-glory, Ivy-leaved damage rating (100=total damage to plant; 0=no damage to plant); for pest or weed control at 62.5 g/ha: 62.5 g ai/ha, 100=total damage to plant, 0=no damage to plant, read-out: plant damage rating, Morningglory, Ivy-leaved; for pest or weed control at 250 g/ha: 250 g ai/ha, read-out: Morningglory, Ivy-leaved damage rating (100=total damage to plant; 0=no damage to plant)
Method in brief: as §1

[4] = tested on: velvetleaf (Abutilon theophrasti); assay: Test G Pre-Emergence Protocol; conditions: Abutilon theophrasti, pre-emergence, 312 h, evaluated after 13 days; for pest or weed control at 15.625 g/ha: 15.625 g ai/ha; for pest or weed control at 15.625 g/ha / pest or weed control at 250 g/ha: read-out: Velvetleaf damage rating (100=total damage to plant; 0=no damage to plant); for pest or weed control at 62.5 g/ha: 62.5 g ai/ha, 100=total damage to plant, 0=no damage to plant, read-out: plant damage rating, Velvetleaf; for pest or weed control at 250 g/ha: 250 g ai/ha
Method in brief: as §1

[5] = tested on: giant foxtail (Setaria faberi); assay: Test G Pre-Emergence Protocol; conditions: Setaria faberi, pre-emergence, 312 h, evaluated after 13 days; for pest or weed control at 15.625 g/ha: 15.625 g ai/ha; for pest or weed control at 15.625 g/ha / pest or weed control at 250 g/ha: read-out: Foxtail, Giant damage rating (100=total damage to plant; 0=no damage to plant); for pest or weed control at 62.5 g/ha: 62.5 g ai/ha, 100=total damage to plant, 0=no damage to plant, read-out: plant damage rating, Foxtail, Giant; for pest or weed control at 250 g/ha: 250 g ai/ha
Method in brief: as §1

[6] = tested on: redroot pigweed (Amaranthus retroflexus); assay: Test G Pre-Emergence Protocol; conditions: Amaranthus retroflexus, pre-emergence, 312 h, evaluated after 13 days; for pest or weed control at 15.625 g/ha: 15.625 g ai/ha; for pest or weed control at 15.625 g/ha / pest or weed control at 250 g/ha: read-out: Pigweed, Redroot damage rating (100=total damage to plant; 0=no damage to plant); for pest or weed control at 62.5 g/ha: 62.5 g ai/ha, 100=total damage to plant, 0=no damage to plant, read-out: plant damage rating, Pigweed, Redroot; for pest or weed control at 250 g/ha: 250 g ai/ha
Method in brief: as §1

[7] = tested on: barnyardgrass (Echinochloa crus-galli); assay: Test G Post-Emergence Protocol; conditions: Echinochloa crus-galli, post-emergence, 312 h; for pest or weed control at 15.625 g/ha: 15.625 g ai/ha, evaluated after 13 days (100=total damage to plant; 0=no damage to plant), read-out: Barnyardgrass damage rating; for pest or weed control at 62.5 g/ha: 62.5 g ai/ha, read-out: Barnyardgrass damage rating (100=total damage to plant; 0=no damage to plant); for pest or weed control at 62.5 g/ha / pest or weed control at 250 g/ha: evaluated after 13 days; for pest or weed control at 250 g/ha: 250 g ai/ha, read-out: damage to plant, Barnyardgrass (100=total damage to plant; 0=no damage to plant)
Method in brief: (§2)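 Foliar application was made 8 days after sowing, using an aqueous spray of the active in acetone/water (50:50) with 0.5% Tween 20, at doses of 15.625, 62.5 or 250 g/ha. Injury was assessed 13 days later, where 100 meant the plant was fully damaged.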

corn (Zea mays) [8] = assay: Test G Post-Emergence Protocol; conditions: Zea mays, post-emergence, 312 h; for plant injury at 15.625 g/ha: 15.625 g ai/ha, evaluated after 13 days (100=total damage to plant; 0=no damage to plant), read-out: Corn damage rating; for plant injury at 62.5 g/ha: 62.5 g ai/ha, read-out: Corn damage rating (100=total damage to plant; 0=no damage to plant); for plant injury at 62.5 g/ha / plant injury at 250 g/ha: evaluated after 13 days; for plant injury at 250 g/ha: 250 g ai/ha, read-out: damage to plant, Corn (100=total damage to plant; 0=no damage to plant)
Method in brief: as §2

[9] = tested on: ivy-leaved morning glory (Ipomoea hederacea); assay: Test G Post-Emergence Protocol; conditions: Ipomoea, post-emergence, 312 h; for pest or weed control at 15.625 g/ha: 15.625 g ai/ha, evaluated after 13 days (100=total damage to plant; 0=no damage to plant), read-out: Morningglory, Ivy-leaved damage rating; for pest or weed control at 62.5 g/ha: 62.5 g ai/ha, read-out: Morningglory, Ivy-leaved damage rating (100=total damage to plant; 0=no damage to plant); for pest or weed control at 62.5 g/ha / pest or weed control at 250 g/ha: evaluated after 13 days; for pest or weed control at 250 g/ha: 250 g ai/ha, read-out: damage to plant, Morningglory, Ivy-leaved (100=total damage to plant; 0=no damage to plant)
Method in brief: as §2

[10] = tested on: velvetleaf (Abutilon theophrasti); assay: Test G Post-Emergence Protocol; conditions: Abutilon theophrasti, post-emergence, 312 h; for pest or weed control at 15.625 g/ha: 15.625 g ai/ha, evaluated after 13 days (100=total damage to plant; 0=no damage to plant), read-out: Velvetleaf damage rating; for pest or weed control at 62.5 g/ha: 62.5 g ai/ha, read-out: Velvetleaf damage rating (100=total damage to plant; 0=no damage to plant); for pest or weed control at 62.5 g/ha / pest or weed control at 250 g/ha: evaluated after 13 days; for pest or weed control at 250 g/ha: 250 g ai/ha, read-out: damage to plant, Velvetleaf (100=total damage to plant; 0=no damage to plant)
Method in brief: as §2

[11] = tested on: giant foxtail (Setaria faberi); assay: Test G Post-Emergence Protocol; conditions: Setaria faberi, post-emergence, 312 h; for pest or weed control at 15.625 g/ha: 15.625 g ai/ha, evaluated after 13 days (100=total damage to plant; 0=no damage to plant), read-out: Foxtail, Giant damage rating; for pest or weed control at 62.5 g/ha: 62.5 g ai/ha, read-out: Foxtail, Giant damage rating (100=total damage to plant; 0=no damage to plant); for pest or weed control at 62.5 g/ha / pest or weed control at 250 g/ha: evaluated after 13 days; for pest or weed control at 250 g/ha: 250 g ai/ha, read-out: damage to plant, Foxtail, Giant (100=total damage to plant; 0=no damage to plant)
Method in brief: as §2

[12] = tested on: redroot pigweed (Amaranthus retroflexus); assay: Test G Post-Emergence Protocol; conditions: Amaranthus retroflexus, post-emergence, 312 h; for pest or weed control at 15.625 g/ha: 15.625 g ai/ha, evaluated after 13 days (100=total damage to plant; 0=no damage to plant), read-out: Pigweed, Redroot damage rating; for pest or weed control at 62.5 g/ha: 62.5 g ai/ha, read-out: Pigweed, Redroot damage rating (100=total damage to plant; 0=no damage to plant); for pest or weed control at 62.5 g/ha / pest or weed control at 250 g/ha: evaluated after 13 days; for pest or weed control at 250 g/ha: 250 g ai/ha, read-out: damage to plant, Pigweed, Redroot (100=total damage to plant; 0=no damage to plant)
Method in brief: as §2

SMILES	pest or weed control at 15.625 g/ha [1] [%]	pest or weed control at 62.5 g/ha [1] [%]	pest or weed control at 250 g/ha [1] [%]	plant injury at 15.625 g/ha (corn (Zea mays) [2]) [%]	plant injury at 62.5 g/ha (corn (Zea mays) [2]) [%]	plant injury at 250 g/ha (corn (Zea mays) [2]) [%]	pest or weed control at 15.625 g/ha [3] [%]	pest or weed control at 62.5 g/ha [3] [%]	pest or weed control at 250 g/ha [3] [%]	pest or weed control at 15.625 g/ha [4] [%]	pest or weed control at 62.5 g/ha [4] [%]	pest or weed control at 250 g/ha [4] [%]	pest or weed control at 15.625 g/ha [5] [%]	pest or weed control at 62.5 g/ha [5] [%]	pest or weed control at 250 g/ha [5] [%]	pest or weed control at 15.625 g/ha [6] [%]	pest or weed control at 62.5 g/ha [6] [%]	pest or weed control at 250 g/ha [6] [%]	pest or weed control at 15.625 g/ha [7] [%]	pest or weed control at 62.5 g/ha [7] [%]	other results
Cc1cccnc1NC(=O)C1C(=O)N(C)CC1c1ccc(C(F)(F)F)cc1 (stereo not drawn) [Compound 1437]	0	0	0	0	0	0	0	0	0	0	0	0	0	0	0	0	0	0	0	0	pest or weed control at 250 g/ha [7]: 0%; plant injury at 15.625 g/ha (corn (Zea mays) [8]): 0%; plant injury at 62.5 g/ha (corn (Zea mays) [8]): 0%; plant injury at 250 g/ha (corn (Zea mays) [8]): 0%; pest or weed control at 15.625 g/ha [9]: 0%; pest or weed control at 62.5 g/ha [9]: 0%; pest or weed control at 250 g/ha [9]: 0%; pest or weed control at 15.625 g/ha [10]: 0%; pest or weed control at 62.5 g/ha [10]: 0%; pest or weed control at 250 g/ha [10]: 0%; pest or weed control at 15.625 g/ha [11]: 0%; pest or weed control at 62.5 g/ha [11]: 0%; pest or weed control at 250 g/ha [11]: 0%; pest or weed control at 15.625 g/ha [12]: 0%; pest or weed control at 62.5 g/ha [12]: 0%; pest or weed control at 250 g/ha [12]: 0%
CCOC(=O)c1cccc([C@H]2CN(C)C(=O)[C@@H]2C(=O)Nc2ccccc2F)c1 (racemic) [Compound 1438]	0	0	0	0	0	0	0	0	0	0	0	0	0	0	20	0	0	0	0	0	pest or weed control at 250 g/ha [7]: 0%; plant injury at 15.625 g/ha (corn (Zea mays) [8]): 0%; plant injury at 62.5 g/ha (corn (Zea mays) [8]): 0%; plant injury at 250 g/ha (corn (Zea mays) [8]): 0%; pest or weed control at 15.625 g/ha [9]: 0%; pest or weed control at 62.5 g/ha [9]: 0%; pest or weed control at 250 g/ha [9]: 0%; pest or weed control at 15.625 g/ha [10]: 0%; pest or weed control at 62.5 g/ha [10]: 0%; pest or weed control at 250 g/ha [10]: 0%; pest or weed control at 15.625 g/ha [11]: 0%; pest or weed control at 62.5 g/ha [11]: 0%; pest or weed control at 250 g/ha [11]: 0%; pest or weed control at 15.625 g/ha [12]: 0%; pest or weed control at 62.5 g/ha [12]: 0%; pest or weed control at 250 g/ha [12]: 10%
